Data as given in patent publication US20100197635A1, “TREATMENT OF TARDIVE DYSKINESIA WITH PYRIDOXAL 5'-PHOSPHATE” (Medicure International Inc., priority 2007, published 2010).
Where two headings read alike, the source gives them in different places. Values belong to the compound of their own block, whether it stands above or below them.

What was measured:
[1] = Phase I single ascending dose study, pharmacokinetics of P5P enteric-coated tablet; format: in vivo, healthy subjects; conditions: both sexes, human, fasting; for Cmax / Tmax / half-life: plasma, baseline-corrected; for AUC(0-t): baseline-corrected plasma P5P
Experimental: (§1) A Phase I, single center, single-dose, open-label, sequential ascending dose study to evaluate the safety and tolerance of pyridoxal-5′-phosphate, in an enteric-coated tablet, following a single dose of 250 mg, 750 mg, 1000 mg, and 4000 mg in healthy subjects under fasting conditions was conducted.
(§2) A total of 32 healthy, adult subjects signed the study-specific Informed Consent Form and were confined in the clinical study unit; of these subjects, 24 (6 subjects in each dose level; 3 males and 3 females) were dosed and were enrolled in the study; all of these enrolled subjects completed the study. Subjects were confined to the SFBC Anapharm Clinical Research Facility from at least 12 hours prior to drug administration until after the 24.0-hour post-dose blood draw.
Subjects were administered a single oral dose of study medication, as a 1×250 mg (Cohort 1), 3×250 mg (Cohort 2; total dose of 750 mg), 4×250 mg (Cohort 3; total dose of 1000 mg), or 16×250 mg (Cohort 4; total dose of 4000 mg) enteric-coated tablets.
After a supervised overnight fast of at least 10 hours, subjects were administered the medication as a single oral dose of 1, 3, 4, or 16 enteric-coated tablets containing 250 mg of P5P (total dose of 250mg, 750 mg, 1000 mg, or 4000 mg), with 300 mL of water. Subjects were dosed as specified in the protocol, and subsequently fasted for at least 4 hours.
The pharmacokinetic parameters to determine bioavailability for this study were: area under the concentration-time curve from time zero to time of last non-zero concentration (AUC0-t), maximum observed concentration (Cmax), time of observed Cmax (Tmax) and elimination half-life (equivalent to t1/2).

[2] = Phase I single ascending dose study, safety and tolerance of P5P enteric-coated tablet; format: in vivo, healthy subjects
Experimental: as §1, §2
Subjects enrolled in this study were members of the community at large. […] All participating subjects were judged eligible for the study when assessed against the inclusion and exclusion criteria. […]

[3] = system: Tardive Dyskinesia; test: Double blind, placebo controlled crossover study of P5P in tardive dyskinesia (Extrapyramidal Symptom Rating Scale); format: in vivo, patients
Experimental: A double blind, placebo controlled crossover study is conducted among patients with TD induced by the use of a neuroleptic medication. Patients are divided into 5 groups: control, Vitamin B6 treatment (400 mg), low dose of P5P (100 mg), medium dose of P5P (250 mg), and high dose of P5P (750 mg). All dosages are administered orally. Treatments are given daily.

[4] = system: P2 purinoceptors; conditions: cited from earlier work
[5] = system: Tardive Dyskinesia; conditions: 100-400 mg vitamin B6 per day, TD induced by schizophrenia medication; cited from earlier work
[6] = unlikely to pose risks of adverse health effects in healthy people; cited from earlier work

Cmax ([1]; single oral dose 250 mg): 300 ± 200 ng/mL
Tmax ([1]; single oral dose 250 mg): 3.2 ± 1.3 h
half-life ([1]; single oral dose 250 mg): 53.8 ± 41.9 h
Cmax ([1]; single oral dose 750 mg): 3900 ± 5400 ng/mL
Tmax ([1]; single oral dose 750 mg): 2.8 ± 0.9 h
half-life ([1]; single oral dose 750 mg): 27.9 ± 19.5 h
Cmax ([1]; single oral dose 1000 mg): 1500 ± 2300 ng/mL
Tmax ([1]; single oral dose 1000 mg): 2.9 ± 1.4 h
half-life ([1]; single oral dose 1000 mg): 36.2 ± 30.6 h
Cmax ([1]; single oral dose 4000 mg): 1700 ± 2700 ng/mL
Tmax ([1]; single oral dose 4000 mg): 4.7 ± 3.5 h
half-life ([1]; single oral dose 4000 mg): 16.5 ± 16.5 h
AUC(0-t) ([1]; single oral dose 250 mg): 2600 ± 1300 ng·h/mL
AUC(0-t) ([1]; single oral dose 750 mg): 12800 ± 15400 ng·h/mL
AUC(0-t) ([1]; single oral dose 1000 mg): 5900 ± 7700 ng·h/mL
AUC(0-t) ([1]; single oral dose 4000 mg): 6900 ± 7400 ng·h/mL
Compound: Cc1ncc(COP(=O)(O)O)c(C=O)c1O [P5P, 3-hydroxy-2-methyl-5-[(phosphonooxy)methyl]-4-pyridine-carboxaldehyde]
tolerability ([2]; dosages up to 4000 mg): well tolerated
side effects or evidence of toxicity ([2]; single oral doses 250, 750, 1000, 4000 mg): none of the patients presented any significant side effects or evidence of toxicity
Extrapyramidal Symptom Rating Scale scores, medium or high dose compared to low dose group ([3]; P5P 250 mg or 750 mg vs 100 mg, orally daily): significantly improved scores
Extrapyramidal Symptom Rating Scale scores, medium dose compared to high dose ([3]; P5P 250 mg vs 750 mg, orally daily): do not exhibit significantly different scores
scores on the subscales of the Extrapyramidal Symptom Rating Scale (parkinsonism and dyskinetic movement scales) ([3]; P5P 100, 250 or 750 mg orally daily, compared to control or vitamin B6 (400 mg) groups): improved scores
ATP induced calcium ion influx into cells [4]: inhibits

Compound: Cc1ncc(CO)c(CO)c1O [vitamin B6, pyridoxine]
scores on the subscales of the Extrapyramidal Symptom Rating Scale (parkinsonism and dyskinetic movement scales) [5]: improved scores
Tolerable Upper Intake Level [6]: 100 mg
